Assay results published in US20130203718A1 (priority 2010, published 2013).

Biological target: T1, hPRB and TIF-2 (Homo sapiens, UniProt P06401)
T1 construct: expressed in transfected cells; host or cells: HEK 293T
T1 sequence (P06401 1-933): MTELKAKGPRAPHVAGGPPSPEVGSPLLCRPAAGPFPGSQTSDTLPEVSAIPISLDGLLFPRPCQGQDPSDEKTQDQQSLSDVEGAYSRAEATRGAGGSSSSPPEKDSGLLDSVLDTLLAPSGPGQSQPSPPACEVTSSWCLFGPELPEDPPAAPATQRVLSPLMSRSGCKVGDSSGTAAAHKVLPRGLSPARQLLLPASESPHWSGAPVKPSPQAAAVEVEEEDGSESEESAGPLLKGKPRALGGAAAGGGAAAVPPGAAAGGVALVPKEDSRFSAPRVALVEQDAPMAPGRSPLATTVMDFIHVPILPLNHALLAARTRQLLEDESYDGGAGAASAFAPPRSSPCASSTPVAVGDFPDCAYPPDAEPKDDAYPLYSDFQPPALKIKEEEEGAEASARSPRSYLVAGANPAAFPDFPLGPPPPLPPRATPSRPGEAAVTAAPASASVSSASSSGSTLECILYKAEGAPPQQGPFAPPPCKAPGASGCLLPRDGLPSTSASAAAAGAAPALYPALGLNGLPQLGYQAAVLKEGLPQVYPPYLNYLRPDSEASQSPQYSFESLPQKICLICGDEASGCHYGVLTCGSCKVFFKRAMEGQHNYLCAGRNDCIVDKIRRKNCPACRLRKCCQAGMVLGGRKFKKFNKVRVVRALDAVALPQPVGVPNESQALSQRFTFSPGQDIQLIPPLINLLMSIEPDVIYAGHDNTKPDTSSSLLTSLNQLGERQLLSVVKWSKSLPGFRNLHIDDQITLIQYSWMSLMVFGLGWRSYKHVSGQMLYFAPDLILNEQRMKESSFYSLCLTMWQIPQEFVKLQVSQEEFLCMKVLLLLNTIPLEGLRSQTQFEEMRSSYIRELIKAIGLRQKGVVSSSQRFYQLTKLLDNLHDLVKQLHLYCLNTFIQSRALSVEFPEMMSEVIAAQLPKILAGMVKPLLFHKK
Test: Mammalian two hybrid assay, recruitment of co-activator TIF-2 (TIF-2-Nter, TIF-2-NterRID) by hPRB
Type: cell-based
Conditions: HEK293T; for recruitment of co-activator TIF-2 sequences by hPRB upon ligand binding: TIF-2-Nter and TIF-2-NterRID, FIGS. 15-17; for inhibition of progesterone induced TIF-2 recruitment by hPRB: two hybrid, FIG. 18
Description: Mammalian Two Hybrid Assays.
To investigate whether hPR was able to recruit transcriptional corepressors upon APRn binding, two hybrid assays have been performed in HEK 293T cells. Cell transfection were carried out according to the protocol used for the PR transactivation assays, with 1 μg of pGAL4-SMRT or pGAL4-NcoR, 2.5 μg of the PR expression vector pV16-PR and 5 μg of the reporter pG5-luc. The plasmid pGAL4-SMRT and pGAL4-NcoR, provided by P. Balaguer, encode the fusion protein between the GAL4 DNA-binding domain (GAL4DBD) and the receptor interacting domain (RID) of the corepressor […], respectively. The expression vector pV16PR encodes the VP16 activation domain of herpes simplex virus fused to the entire hPR and pG5-luc, provided by P. Fuller, encodes the luciferase gene driven by a GAL4-responsive promoter. […] Cell transfection were carried out according to the PR transactivation assays, by using 2 μg of pM-TIF2/Nter-RID or […], 2 μg of the expression vector pV16PR and 5 μg of the reporter pG5luc. The plasmids pM-TIF2/Nter-RID encodes the fusion proteins between the GAL4 DBD and the 1-867 TIF2 sequence corresponding to the Nter and RID domains. The plasmids pMTIF2-Nter encodes the fusion proteins between the GAL4 DBD and the 1-623 TIF2 sequence corresponding to the Nter domain. After 16 h incubation, the transfected cells were washed with PBS containing 2.5 mM EDTA, trypsinized and replated in 24-well plates. […] Cells were lysed and the luciferase and activities were quantified by using a Mithras reader microplates (Berthold).
Both agonist- and antagonist-bound PR regulate gene transcription with the assistance of transcriptional co-repressors (NCoR, SMRT) or co-activators (namely, TIF-2). To characterize the mechanism by which APRn inactivate hPRB, the capacity of hPRB to recruit transcriptional co-regulators upon APRn binding has been evaluated. With this aim, mammalian two-hybrid assays in HEK293T cells have been performed by using two series of fusion proteins: (i) the VP16 activation domain of herpes simplex virus fused to the entire hPRB and (ii) the GAL4 DNA-binding domain (DBD) fused to the receptor interacting domain (RID) of corepressors (NCoR and SMRT), the GAL4 DBD fused to the 1-867 sequence of the co-activator TIF2 (corresponding to the Nter and RID domains), the GAL4 DBD fused to the 1-623 sequence of TIF2 (corresponding to the Nter domain).
Further, the capacity of hPRB to bind the co-activator TIF-2 was examined. The two-hybrid assays were performed with the TIF-2 sequence encompassing its N-ter region alone (TIF-2-Nter) or the sequence including the N-ter and the RID regions (TIF-2-NterRID).

Q: What does the source list for `C[C@]12CCC3C(CC=C4C[C@@H](F)CC[C@@H]43)C1CCC2=O` (stereo partly drawn) [APR-47, 3β-Fluoro-19-nor-androst-5-en-17-one]?
A: recruitment of co-activator TIF-2 sequences by hPRB upon ligand binding: unable to recruit the two TIF-2 sequences; inhibition of progesterone induced TIF-2 recruitment by hPRB: able to inhibit the progesterone induced TIF-2 recruitment

Q: For `CC#C[C@]1(O)CCC2C3CC[C@H]4CCCC[C@@H]4C3CC[C@@]21C` (stereo partly drawn) [APR-54, 17α-(1-Propynyl)-19-nor-5-androstan-17β-ol], which “recruitment of co-activator TIF-2 sequences by hPRB upon ligand binding” value is on record?
A: unable to recruit the two TIF-2 sequences

Q: What about the “inhibition of progesterone induced TIF-2 recruitment by hPRB” value of the same molecule?
A: able to inhibit the progesterone induced TIF-2 recruitment

Q: Which results are given for `CC(=O)[C@H]1CC[C@H]2[C@@H]3CC=C4C[C@@H](F)CC[C@]4(C)[C@H]3CC[C@]12C` [APR-16, 3β-Fluoropregn-5-en-20-one]?
A: recruitment of co-activator TIF-2 sequences by hPRB upon ligand binding: unable to recruit the two TIF-2 sequences; inhibition of progesterone induced TIF-2 recruitment by hPRB: able to inhibit the progesterone induced TIF-2 recruitment
